Data reported in patent US20100240868A1, “Composition and Method for a Producing Stable Amyloid Beta Oligomers of High Molecular Weight” (priority 2005, published 2010).

Columns and labels:
[1] = SDS-PAGE analysis of glutaraldehyde cross-linked samples (oligomer formation and storage stability); assay type: physicochemical
Description: The soluble Aβ oligomers were cross-linked with glutaraldehyde, incubated for 10 minutes at room temperature and then quenched with 1M glycine, 1M Tris-HCl pH 7.5. Cross-linked samples were then diluted to a final concentration of 0.02 μg/μL, in Tris-glycine SDS sample buffer. For analysis, 0.28 μg Aβ (nominal concentration) in either monomeric or oligomeric form was separated by electrophoresis at 125V for about 100 minutes using a 4% to 20% tris-glycine gel (Invitrogen, Carlsbad, Calif.). Gels were then silver stained to visualize the size distribution of the soluble Aβ oligomers. For glutaraldehyde concentration optimization, HFIP-dried Aβ42 or HFIP-dried Aβ40 was solubilized in DMSO (20 mg/mL, 4.4 mM), added to 50 mM phosphate, pH 9.0, to a final concentration of 1.8 mg/mL (400 μM) and incubated at 4° C. overnight, protected from light. […]
As set forth above in Examples 1-4, Aβ42 forms soluble Aβ oligomers in 50 mM phosphate, pH 9.0 buffer during storage at 2° C. to 8° C. However, the optimal concentration for formation, biological activity and storage stability of these oligomeric species during storage was not determined. […] These cross-linked species were not disrupted in the presence of SDS, and therefore, the appropriate size distribution could be determined by SDS-PAGE. […]

[2] = system: PC-12 cells; experiment: PC-12 MTT reduction assay; assay type: cell-based; conditions: for MTT reduction: PC-12 cells
Description: PC-12 cells were plated at 30,000 cells/well and allowed to grow overnight at 37° C./5% CO2. Soluble Aβ oligomers or vehicle were added to cells at concentrations of 1 μM and 5 μM. After a four hour incubation at 37° C./5% CO2, the MTT reduction assay was performed (Lambert et al., 2001, J. Neurochem. 79, 595-605). Briefly, MTT (10 μL, 5 mg/mL) was added to each well and allowed to incubate for four hours. A solubilization buffer (100 μL, 10% SDS in 0.01 N HCl) was added and the plate was incubated at 37° C./5% CO2 overnight. The assay was then quantified at 595 nm on a Tecan Spectrafluor Plus plate reader (Tecan Systems, San Jose, Calif.).
In this experiment, Aβ42 was prepared at concentrations of 1 mM, 850 μM, 650 μM, 450 μM, 250 μM and 100 μM in 50 mM phosphate pH 9.0 buffer as described in the Example 8. After 7 days of incubation at 4° C., samples were tested by the MTT assay to determine bioactivity.

In the case of “Aβ40: HFIP-dried Aβ40 monomer peptide, solubilized in DMSO and incubated in 50 mM phosphate, pH 9.0 [reference compound]”, the oligomer formation ([1]; 400 μM in 50 mM phosphate, pH 9.0, 24 hour incubation at 4° C.) is reported as “primarily stays monomeric and does not form oligomers”.

With Aβ peptide (1-42) [Aβ42] the MTT reduction ([2]; stock concentrations 450 μM to 650 μM in 50 mM phosphate pH 9.0, 7 days at 4° C., test concentration 5 μM, 4 h incubation) was “about 55%”, the MTT reduction ([2]; stock concentrations below 450 μM and above 650 μM in 50 mM phosphate pH 9.0, 7 days at 4° C., tested at 1 μM and 5 μM) was 80-105% and the bioactivity after storage ([2]; stock concentrations of 450 μM to 650 μM in 50 mM phosphate, pH 9.0 buffer, storage at 2-8° C.) was “remain bioactive for up to seven days”. The “storage stability of oligomeric (150 kDa) species” value ([1]; stock concentration 450 μM in 50 mM phosphate, pH 9.0 buffer, 1, 4 and 7 days at 4° C., 0.5% glutaraldehyde cross-linking) was “can be stored for seven days at 4 °C”.
